In article PMC9658513, “Discovery of Compounds That Selectively Repress the Amyloidogenic Processing of the Amyloid Precursor Protein: Design, Synthesis and Pharmacological Evaluation of Diphenylpyrazoles” (International Journal of Molecular Sciences, 2022):

Assays:
Type in all cases: cell-based, human
Aβ1–42 peptide secretion = assay: Aβ1–42 secretion in cell medium by ELISA; conditions: Homo sapiens; SY5Y-APP^WT cells, 24 h treatment; mean ± SD of at least three experiments in triplicate
Protocol: (§1) The final and selected intermediate compounds were evaluated for their ability to modulate APP processing in the SH-SY5Y human neuroblastoma cell line stably expressing the neuronal isoform of human wild-type APP^695 (SY5Y-APP^WT), a well-established model for the study of APP metabolism. APP carboxy-terminal fragments (αCTFs and AICD) levels were assessed by Western blotting (WB). The effect of the reference and test compounds on αCTFs and AICD is expressed as the intensity of corresponding WB bands. The concentration of compounds able to increase 20-times αCTFs and AICD (C20) when compared to the control condition was calculated. Selected compounds were also evaluated for their ability to modulate the secretion of soluble APP fragments (sAPPα and sAPPβ). Aβ1–x levels (Aβ1–40 and Aβ1–42) after treatment with the reference and tested compounds were measured in the cell media by ELISA (Table 1). […] Selected hit compounds were then further evaluated for their ability to decrease the level of N-truncated Aβ peptides (Aβx–38, Aβx–40, and Aβx–42).
(§2) The human neuroblastoma cell line SY5Y-APP^695WT was maintained in Dulbecco’s modified Eagle medium (DMEM, high glucose, pyruvate—GIBCO, Life Technologies, Carlsbad, CA, USA) supplemented with 10% fetal bovine serum, 2 mM L-glutamine, 1 mM non-essential amino acids and penicillin/streptomycin (GIBCO, Life Technologies, Carlsbad, CA, USA) at 37 °C in a 5% CO2 humidified incubator [36]. For compound treatment, a 10 mM stock solution was diluted in freshly supplemented DMEM medium to obtain the precise final concentration of the drug. Cells were plated at a density of 5 × 10^5 cells per well into 12-well plates and cultured with 1 mL supplemented DMEM cell medium for 24 h before compound exposure. The following day, the cell medium was replaced with fresh medium containing the compounds diluted at the indicated concentrations. Cells were treated for 24 h. At the end of the treatments, the cell medium was collected and kept at −80 °C until use, cells were rinsed once with PBS and extracted in 100 µL of Laemmli buffer (10 mM Tris, 20% glycerol, and 2% sodium dodecyl sulfate) using a cell-scraper. The cell lysate was further sonicated (30 pulses of 0.5 s, 60 Hz) for 5 min. Total protein concentration was determined using the Pierce BCA Protein Assay Kit (Thermo Scientific, Waltham, MA, USA) according to the manufacturer’s instructions. Samples were stored at −80 °C until analysis.
(§3) Conditioned media of SY5Y-APP^695WT collected at the end of treatments were centrifuged at 1000× g for 5 min to eliminate cell debris.
(§4) Aβ1–40/Aβ1–42 peptides, Aβx–38/Aβx–40/Aβx–42, and sAPPα/sAPPβ concentrations in pg/mL were determined, respectively, using amyloid-beta 40 and 42 Human ELISA Kits (Invitrogen), the V-PLEX Plus Aβ Peptide Panel 1 (4G8) Kit (Meso Scale Diagnostics, MSD R©, Rockville, MD, USA), and the sAPPα/sAPPβ Multiplex Kit (Meso Scale Diagnostics, MSD R©, Rockville, MD, USA) according to the manufacturer’s instructions.

[1] = tested on: AICD (APP intracellular domain); assay: AICD level by Western blotting in SY5Y-APP^WT cells; conditions: Homo sapiens, concentration increasing AICD 20-fold vs untreated control, read-out: AICD (C20)
Protocol: as §1, §2
(§5) Cell protein lysates were prepared for Western blot analysis by diluting the sample with 1 volume of NuPAGE® lithium dodecyl sulfate (LDS) 2X sample buffer supplemented with 20% NuPAGE® sample reducing agents (Invitrogen). Samples were heated for 10 min at 100 °C. Ten µg of total proteins per well were loaded onto precast 4–12% Criterion XT Bis-Tris polyacrylamide gels (Bio-Rad) and electrophoresis was achieved after applying a tension of 150 V for 90 min using a Criterion electrophoresis cell with the NuPAGE® MOPS SDS running buffer (1X). Proteins were transferred to a nitrocellulose membrane of […] pore size (G&E Healthcare, Madison, WI, USA) using the Criterion blotting system and applying a tension of 100 V for 45 min. To resolve proteins of low molecular weights such as carboxy-terminal fragments of APP, 12% Criterion XT Bis-Tris polyacrylamide gels (Bio-Rad, Hercules, CA, USA) were used, and electrophoresis was performed for 70 min at 150 V in a NuPAGE® MES SDS running buffer (1X). Proteins were transferred to a nitrocellulose membrane of 0.2 µm pore size (G&E Healthcare, Madison, WI, USA) at 100 V for 40 min. Molecular weight calibration was achieved using molecular weight markers (Novex and Magic Marks, Life Technologies, Carlsbad, CA, USA). Protein transfer and quality were determined by a reversible Ponceau Red coloration (0.2% xylidine Ponceau Red and 3% trichloroacetic acid). […]

in vitro = conditions: human
Protocol: Cytotoxicity was measured using 3-(4,5-dimethylthiazol-2-yl)-5-(3-carboxymethoxyphenyl)-2-(4-sulfophenyl)-2H-tetrazolium (MTS) tests. SY5Y-APP^695WT cells were plated in a 96-well plate at 3 × 10^4 cells per well and allowed to attach for 24 h. Cells were then incubated for 72 h with 100 µL of DMEM with 10% SVF containing (or not) the defined concentration of drugs. Cytotoxicity was determined by using the colorimetric MTS assay (Cell Titer 96® Aqueous One Solution Cell Proliferation Assay-MTS Promega, Madison, WI, USA) according to the manufacturer’s instructions. Absorbance was read at 490 nm.

[2] = tested on: αCTF (APP carboxy-terminal fragment); assay: αCTF level by Western blotting in SY5Y-APP^WT cells; conditions: Homo sapiens; concentration increasing αCTF 20-fold vs untreated control; SY5Y-APP^WT cells; read-out: αCTF (C20)
Protocol: as §1, §2, §5

Aβ1–40 peptide secretion = assay: Aβ1–40 secretion in cell medium by ELISA; conditions: Homo sapiens; SY5Y-APP^WT cells, 24 h treatment; mean ± SD of at least three experiments in triplicate; read-out: Aβ1–40 IC50
Protocol: as §1, §2, §3, §4

Row | SMILES | IC50 (Aβ1–42 peptide secretion) | IC50 (Aβ1–40 peptide secretion) | EC (20-fold increase) [1] | CC50 at 72 h (in vitro) | EC (20-fold increase) [2]
1 | CN(C)CCCc1ccc(-c2nn(-c3cccc(CN(C)C)c3)cc2CN(C)C)cc1 [Compound 26, 3-[4-[4-(Dimethylaminomethyl)-1-[3-(dimethylaminomethyl)phenyl] Pyrazol-3-yl]phenyl]-N,N-dimethyl-propan-1-amine] | 2.4 ± 0.7 µM | 1600 ± 100 nM | 1.8 µM | > 100 µM | 1.3 µM
2 | CN(C)CCCc1ccc(-c2nn(-c3cccc(CN(C)C)c3)cc2CCCN(C)C)cc1 [Compound 27, 3-[4-[1-[3-(Dimethylaminomethyl)phenyl]-4-[3-(dimethylamino)propyl] Pyrazol-3-yl]phenyl]-N,N-dimethyl-propan-1-amine] | 3.8 ± 0.4 µM | 2600 ± 100 nM | 1.6 µM | > 100 µM | 1.3 µM
3 | Cc1cn(-c2cccc(CN(C)C)c2)nc1-c1ccc(CN(C)C)cc1 [Compound 61, {[4-(1-{3-[(Dimethylamino)methyl]phenyl}-4-methyl-1H-pyrazol-3-yl)phenyl]methyl}dimethylamine] | 4.1 ± 2.1 µM | 3900 ± 300 nM | 2.7 µM | 27 µM | 2.7 µM
4 | CN(C)CCCc1ccc(-c2nn(-c3cccc(CN4CCN(C)CC4)c3)cc2CCCN(C)C)cc1 [Compound 31, 3-[4-[4-[3-(Dimethylamino)propyl]-1-[3-[(4-methylpiperazin-1-yl)methyl] Phenyl]pyrazol-3-yl]phenyl]-N,N-dimethyl-propan-1-amine] | 5.8 ± 0.6 µM | 4000 ± 600 nM | 1.5 µM | > 100 µM | 1 µM
5 | CN(C)CCCc1ccc(-c2nn(-c3cccc(CN4CCN(C)CC4)c3)cc2CN(C)C)cc1 [Compound 30, 3-[4-[4-(Dimethylaminomethyl)-1-[3-[(4-methylpiperazin-1-yl)methyl] Phenyl]pyrazol-3-yl]phenyl]-N,N-dimethyl-propan-1-amine] | 3.8 ± 0.1 µM | 2200 ± 300 nM | 1.6 µM | > 100 µM | 1.2 µM
6 | Cc1cn(-c2cccc(CN3CCN(C)CC3)c2)nc1-c1ccc(CN(C)CCCN(C)C)cc1 [Compound 68, [3-(Dimethylamino)propyl](methyl){[4-(4-methyl-1-{3-[(4-methylpiperazin-1-yl)methyl]phenyl}-1H-pyrazol-3-yl)phenyl]methyl}amine] | 1.6 ± 0.1 µM | 1200 ± 100 nM | 1 µM | 6 µM | 1 µM
7 | Cc1cn(-c2cccc(CO)c2)nc1-c1ccc(CN(C)C)cc1 [Compound 48, [3-[3-[4-(Dimethylaminomethyl)phenyl]-4-methyl-pyrazol-1-yl]phenyl] Methanol] | > 10 µM | > 10000 nM | – | 24 µM | –
8 | CN(C)CCCc1ccc(-c2nn(-c3ccc(CN(C)C)cc3)cc2CCCN(C)C)cc1 [Compound 25, 3-[4-[1-[4-(Dimethylaminomethyl)phenyl]-4-[3-(dimethylamino)propyl] Pyrazol-3-yl]phenyl]-N,N-dimethyl-propan-1-amine] | 3.2 ± 1 µM | 2900 ± 100 nM | 1.2 µM | > 100 µM | 1 µM
9 | CN(C)CCCc1ccc(-c2nn(-c3ccc(CO)cc3)cc2CCCN(C)C)cc1 [Compound 17, [4-[4-[3-(Dimethylamino)propyl]-3-[4-[3-(dimethylamino)propyl]phenyl] Pyrazol-1-yl]phenyl]methanol] | 5.4 ± 2.4 µM | 4800 ± 1200 nM | 3.6 µM | 34 µM | 2 µM
10 | Cc1cn(-c2cccc(CN3CCN(C)CC3)c2)nc1-c1ccc(CN(C)C)cc1 [Compound 62, Dimethyl({[4-(4-methyl-1-{3-[(4-methylpiperazin-1-yl)methyl]phenyl}-1H-pyrazol-3-yl)phenyl]methyl})amine] | 3.2 ± 0.8 µM | 2400 ± 200 nM | 3.5 µM | 11 µM | 2 µM

Further lines, with some results ahead:

Row | IC50 (Aβ1–42 peptide secretion) | IC50 (Aβ1–40 peptide secretion) | SMILES | EC (20-fold increase) [1] | CC50 at 72 h (in vitro) | EC (20-fold increase) [2]
11 | 2.7 ± 0.2 µM | 2000 ± 200 nM | Cc1cn(-c2cccc(CN(C)CCCN(C)C)c2)nc1-c1ccc(CN(C)C)cc1 [Compound 63, [(4-{1-[3-({[3-(Dimethylamino)propyl](methyl)amino}methyl)phenyl]-4-methyl-1H-pyrazol-3-yl}phenyl)methyl]dimethylamine] | 1.5 µM | 13 µM | 1.2 µM
12 | 2.5 ± 1 µM | 2200 ± 300 nM | Cc1cn(-c2cccc(CN(C)CCCN(C)C)c2)nc1-c1cccc(CN(C)C)c1 [Compound 66, N′-[[3-[3-[3-(Dimethylaminomethyl)phenyl]-4-methyl-pyrazol-1-yl]phenyl]methyl]-N,N,N’-trimethyl-propane-1,3-diamine] | 2.4 µM | 47 µM | 2.2 µM
13 | 3.3 ± 0.1 µM | 2600 ± 200 nM | Cc1cn(-c2cccc(CN(C)CCCN(C)C)c2)nc1-c1cccc(CN(C)CCCN(C)C)c1 [Compound 72, N′-[[3-[1-[3-[[3-(Dimethylamino)propyl-methyl-amino]methyl]phenyl]-4-methyl-pyrazol-3-yl]phenyl]methyl]-N,N,N′-trimethyl-propane-1,3-diamine] | 0.8 µM | 26 µM | 0.6 µM
14 | 4.1 ± 1.6 µM | 3800 ± 200 nM | Cc1cn(-c2cccc(CN(C)C)c2)nc1-c1cccc(CN(C)C)c1 [Compound 64, 1-[3-[1-[3-(Dimethylaminomethyl)phenyl]-4-methyl-pyrazol-3-yl]phenyl]-N,N-dimethylmethanamine] | 4.9 µM | > 100 µM | 3.8 µM
15 | 3.5 ± 0.7 µM | 3300 ± 1300 nM | Cc1cn(-c2cccc(CO)c2)nc1-c1cccc(CN(C)CCCN(C)C)c1 [Compound 58, [3-[3-[3-[[3-(Dimethylamino)propyl-methyl-amino]methyl]phenyl]-4-methyl-pyrazol-1-yl]phenyl]methanol] | 7.9 µM | 20 µM | > 10 µM
